Experimental data as given in patent US10150793B2, “Antagonists of CB1 receptor” (INSERM (Institut National de la Santé et de la Recherche …, priority 2011, dated 2018).

Experiments:
CB1 receptor = CB1 receptor (Mus musculus, UniProt P47746); test: THC inhibition of fEPSP in nucleus accumbens slices; format: cell-based, mice; parameters: from tissue; host or cells: acute brain slices, nucleus accumbens; conditions: slices pre-incubated with pregnenolone 100 nM
Description: Animals were deeply anesthetized with Isoflourane and transcardially perfused with a sucrose-based physiological solution at 4° C. (in mM: 23 NaHCO3, 70 Choline Cl, 75 Sucrose, 25 Glucose, 2.5 KCl, 1.25 NaH2PO4, 7 MgCl2 and 0.5 CaCl2). The brain was removed and sliced (250-300 μm) in the coronal plane using a vibratome (Campden Instruments, Loughborough, UK). During the slicing process, the brain was maintained in the sucrose-based solution. Immediately after cutting, slices were stored at 32° C. for 40 minutes in a low-calcium artificial cerebrospinal fluid (low-Ca^2+ ACSF) that contained (in mM): 23 NaHCO3, 120 NaCl, 11 Glucose, 2.5 KCl, 1.2 NaH2PO4, 2.4 MgCl2, 1.2 CaCl2. Slices were then stored in low-Ca^2+ ACSF at room temperature until recording.
For fEPSPs, extracellular glass recording and stimulating electrodes were filled with ACSF. Synaptic potentials were evoked by means of two electric stimuli (0.1-0.25 mA, 200 μsec duration) delivered at 20 Hz every 10 seconds. Stimulating electrode was placed at a distance>150 μm in the dorsomedial direction from the recoding electrode.
In order to test the effect of pregnenolone on a wider range of THC concentrations, we recorded fEPSP in NAc slices. Due to the possibility to achieved stable fEPSP measurements for several hours, this technique is ideally suited to perform dose-response curves and has previously been used to address CB1 receptor function (Robbe et al., 2001; Mato et al., 2004). Thus, AMPAR-mediated evoked fEPSP were recorded by electrically stimulating local axons.

[1] = Elevated plus maze, anxiety-like behaviors; format: in vivo, mice; conditions: sc, 30 min before test; pregnenolone 1, 6, 10 mg/kg; rimonabant 10 mg/kg
Description: The elevated plus maze was made by a central platform (10×10 cm) from which departed 4 arms (45×10 cm) at a 90° angle from each other. Two opposite arms, named closed arms had peripheral wall 50 cm high. The two other arms, named open arms had no walls. The maze was suspended at 66 cm from the floor of the room and was brightly lighted (120 lux). The testing consisted in placing the animal in the central platform and the number of entry and the time spent in each compartment of the maze recorded for 5 min. The number of entry and time spent in the open arms are considered and index of anxiety-like behaviors, whilst the total number of entry are and index of locomotor activity.
One of the major side effects of orthosteric antagonists of the CB1 is the induction of behavioral side effect and in particular an axiodepressive state. […] This test has been chosen because an increase in anxiety was the principal undesirable side effect of this compound in humans.

GABA-A receptors = test: GABA-A receptors-mediated mIPSC in nucleus accumbens principal neurons; format: cell-based, mouse
Description: GABA-A receptors-mediated currents: mIPSC were recorded in the presence of the AMPAR and NMDAR antagonists (DNQX 20 μM and AP-5 50 μM, respectably). mEPSC-mIPSC analysis: Typically, after breaking in, cells were left to equilibrate for 20 minutes and the subsequent 10 minutes recording of mEPSC-mIPSC was used to analysis. mEPSC-mIPSC were detected using a template generated from averaging several typical events (Clampfit 10, Molecular Devices). The template was slid along the data trace one point at a time. At each position, the template was optimally scaled and offset to fit the data. A lower-amplitude threshold of 7 pA and 10 pA were applied for mEPSC and mIPSC, respectably, equivalent to 2.5SD of baseline noise. For each cell, the kinetics of mEPSC-mIPSC was measured from the average event using Clampfit 10. To estimate decay times, a two exponentials curve was fitted between 5 and 95% of the decay phase of the current given by the following equation: y(t)=A1·e^(−t/τ1)+A2·e^(−t/τ2), where A is the amplitude, t is the time and τ is the decay time constant. The weighted tau was then calculated.
In order to evaluate the effect of pregnenolone on the function of post-synaptic GABA we recorded mIPSC and compared its amplitude and decay time between groups. We observed that mIPSC amplitude and decay time were similar between controls (amplitude: 17.9±0.8 pA; decay time: 11.1±0.3 ms) and slices pre-treated with pregnenolone (100 nM and 1 μM, respectively; amplitude: 17.3±0.4 pA, 15.9±0.4 pA; decay time: 10.2±0.4 ms, 10.8±0.5 ms).

[2] = Plasmatic levels of pregnenolone and allopregnanolone after subcutaneous injection or Alzet minipumps; format: in vivo, mice
Description: Micro-osmotic pumps (Alzet Osmotis Pumps, Charles River, France) with a pump rate of 0.15 μl/hr (model 2006) were filled with pregnenolone dissolved in PEG300 (85%) and ethanol (15%) at a concentration of 125 or 250 mg/ml (corresponding respectively to a daily dose of 12 or 24 mg/kg body weight) and implanted subcutaneously after light anesthesia. All pumps were primed by soaking them in saline at 37° C. for 60 h before implantation.
The effects of pregnenolone administration on plasmatic levels of pregnenolone were compared (n=5 per group) when pregnenolone was administered subcutaneously (6 mg/kg) or by Alzet micro-osmotic pumps (Alzet Osmotis Pumps, Charles River, France, model 2006) that simulate an extended release formulations of pregnenolone. Thus, these mini pump implanted subcutaneously provide a steady release of pregnenolone. Two pregneolone concentrations were used 0.6 mg/kg/hour and 1 mg/kg/hour (10 times and six times lower than the dose administered subcutaneously). […] The half life of pregnenolone administered subcutaneously was quite short (half an hour) and the increase in allopregnanolone was maintained over one hour (FIG. 20). […] Also pregnenolone levels remained in the range of effective therapeutic doses over two weeks.

[3] = Alzet minipump at 0.6 mg/kg/hour

Chain of CB1 receptor (P47746 whole entry, the tested form may be a part): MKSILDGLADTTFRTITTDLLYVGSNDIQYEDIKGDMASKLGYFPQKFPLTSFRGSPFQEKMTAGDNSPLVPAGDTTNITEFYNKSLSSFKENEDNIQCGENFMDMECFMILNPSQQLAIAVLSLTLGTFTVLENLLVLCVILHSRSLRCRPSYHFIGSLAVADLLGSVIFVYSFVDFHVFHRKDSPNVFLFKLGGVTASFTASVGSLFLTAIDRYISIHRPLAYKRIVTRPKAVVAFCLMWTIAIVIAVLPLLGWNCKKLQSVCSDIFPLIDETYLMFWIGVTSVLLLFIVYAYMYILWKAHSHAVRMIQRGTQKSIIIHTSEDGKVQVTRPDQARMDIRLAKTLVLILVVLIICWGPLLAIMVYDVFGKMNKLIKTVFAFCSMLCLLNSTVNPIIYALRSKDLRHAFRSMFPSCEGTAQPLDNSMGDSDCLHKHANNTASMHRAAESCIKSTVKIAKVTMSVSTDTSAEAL

CC(=O)[C@H]1CC[C@H]2[C@@H]3CC=C4C[C@@H](O)CC[C@]4(C)[C@H]3CC[C@]12C [Pregnenolone, 5-Pregnen-3β-ol-20-one]
inhibition of fEPSP by THC (CB1 receptor; THC 10 μM): 11.1±3.2%
inhibition of fEPSP by THC (CB1 receptor; THC 20 μM): 22.7±2.7%
inhibition of fEPSP by THC (CB1 receptor; THC 40 μM): 34.6±3.1%
anxiety-like behavior (entries and time spent in open arms) [1]: induced no increase in anxiety
mIPSC amplitude (GABA-A receptors; slices pre-treated with 100 nM): 17.3±0.4 pA
mIPSC decay time (GABA-A receptors; slices pre-treated with 100 nM): 10.2 ± 0.4 ms
mIPSC amplitude (GABA-A receptors; slices pre-treated with 1 μM): 15.9±0.4 pA
mIPSC decay time (GABA-A receptors; slices pre-treated with 1 μM): 10.8 ± 0.5 ms
plasma allopregnanolone [2, 3]: did not increased allopregnanolone
plasmatic pregnenolone [2, 3]: increased in the range of the maximum increase observed after the subcutaneous injection
plasma allopregnanolone ([2]; Alzet minipump at 1 mg/kg/hour): allopregnanolone did not increase
pregnenolone plasmatic concentrations ([2]; Alzet minipump at 1 mg/kg/hour): at the double of what observed after 6 mg/kg
half life ([2]; administered subcutaneously): half an hour
half-life ([2]; mouse, in vivo): approximately 30 min
plasma allopregnanolone ([2]; pregnenolone subcutaneously at 6 mg/kg): induced an increase in allopregnanolone
duration of the increase in pregnenolone levels ([2]; subcutaneous injection): < 1 h
plasmatic levels of pregnenolone ([2]; subcutaneously at 6 mg/kg): around 100 ng/ml
